Target: T1, P2X purinoceptor 7 (Homo sapiens, UniProt Q99572)
T1 sequence (Q99572 whole entry): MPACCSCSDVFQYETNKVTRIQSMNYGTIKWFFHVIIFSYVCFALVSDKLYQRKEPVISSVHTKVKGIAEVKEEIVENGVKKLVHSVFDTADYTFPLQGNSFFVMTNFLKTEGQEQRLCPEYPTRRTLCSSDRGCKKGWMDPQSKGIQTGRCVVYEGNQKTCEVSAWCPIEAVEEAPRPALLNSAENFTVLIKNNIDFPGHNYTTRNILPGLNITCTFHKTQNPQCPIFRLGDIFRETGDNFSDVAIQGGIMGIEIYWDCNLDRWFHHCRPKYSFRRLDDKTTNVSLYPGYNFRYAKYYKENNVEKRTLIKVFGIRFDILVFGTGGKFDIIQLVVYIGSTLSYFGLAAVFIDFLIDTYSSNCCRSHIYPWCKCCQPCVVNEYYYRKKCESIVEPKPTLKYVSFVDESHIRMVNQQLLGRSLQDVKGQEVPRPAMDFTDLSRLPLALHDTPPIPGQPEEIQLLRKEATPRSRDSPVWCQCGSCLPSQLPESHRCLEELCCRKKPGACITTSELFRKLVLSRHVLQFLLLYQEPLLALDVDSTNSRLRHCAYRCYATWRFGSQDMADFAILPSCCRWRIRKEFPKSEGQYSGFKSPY
Test: Pore Permeation Assay
Experimental: Agonist-induced pore formation was determined by measuring cellular uptake of YO PRO fluorescence dye in HEK293 transfected with human P2X7 receptor. A HEK293 cell over expressing human P2X7 was harvested using HQTase reagent to detach the cells from T75 cm flask. The harvested cells are centrifuged @1200 rpm for 5 min at room temperature. The viability of cells was determined by Trypan blue dye and the cells are plated @10,000 cell/well in 50 ul volume in a 384W BD Poly lysine coated plate and incubated overnight at 37 C. […] The plate was centrifuged at 1000 rpm for 5 seconds and incubated at room temperature for 30 minutes. The uptake of YO PRO dye into the cells was measured using Envision Fluorescence plate reader instrument (Perkin Elmer).

With CCN(C)C(=O)Cn1cc(C(=O)NCC2CCC(F)(F)CC2)c2c(Cl)cccc21 [US10323000, Compound 163] the IC50 was less than 10 nM.

Reference: BindingDB's records for patent US10323000 (Merck Patent, 2019)
